Like-named read-outs stand apart in the source and are kept apart here.
Assays:
[1] = tested on: LLC lung cancer cell line; experiment: cells; type: cell-based, mouse
[2] = tested on: H1975 lung cancer cell line; experiment: CellTiter Glo viability assay, drugs alone or combined with CBD; type: cell-based
Procedure: Viability after treatment with each cancer drug was compared with and without CBD (*=p<0.05 Student's t test).
Effects of CBD combination with Standard of Care drugs in lung cancer cells: A study was conducted which screened cannabinoids, including CBD, for their ability to synergize with FDA-approved anti-cancer drugs to reduce the viability of cancer cells in vitro. […] IC50 was calculated using GraphPad Prism (dose-response inhibition), and Combination Index (CI) was calculated using CompuSyn software. […] Because the major driver mutation in this cell line is known (KRAS), the study evaluated potential drug synergy between CBD and the G12D specific KRAS inhibitor MTRX1133.

[3] = tested on: lung tumor-bearing mice (luciferase expressing LLC cells); experiment: Open field test, elevated plus maze and tumor growth in mice with orthotopic LLC lung tumors; type: in vivo, C57BL/6 mice
Procedure: FIGS. 5A-5C depict the effects of CBD on behavior in lung tumor bearing mice. […] D-Luciferin (150 mg/kg) was delivered by IP injection 10 minutes prior to imaging. Vehicle or CBD (25 mg/kg) was delivered by oral gavage every alternate day and Open Field (FIG. 5B) and EPM (FIG. 5C) tests were performed. Significant differences between means were determined by ANOVA with Holm Sidack post hoc test.
Effects of CBD on the behavior of lung tumor-bearing mice: To make a preliminary assessment of the effects of CBD on the behavior of lung tumor-bearing mice, a study was conducted which used the open field test and EPM to determine if behavioral deficiencies observed in FIGS. 4A-4C could be rescued. Lung tumors were initiated in C57BL/6 mice via intratracheal instillation of 5×10^5 luciferase expressing LLC cells (Perkin Elmer) and tumor growth was monitored using the Perkin Elmer In Vivo Imaging System (IVIS). Treatment groups were assigned on day 9 (FIG. 5A) to ensure each group (n=4) contained tumors of approximately the same size based on luminescence readings. CBD (25 mg/kg) or vehicle (2:1:18 parts ethanol:Tween-80:PBS) treatments by oral gavage were started on day 10 and repeated every alternate day, two hours prior to the beginning of behavioral testing. […] This is consistent with previous studies of CBD treatment in naïve mice. […] (FIG. 5B).
This may indicate less interest in the corner zone and, therefore, less anxiety. […] The effects of CBD treatment in lung cancer can be investigated using additional tests to measure pain (cold plate, Von Frey, conflict avoidance) and endurance (treadmill) to discover how CBD dose and combination with cancer therapies can improve these outcomes.

[4] = tested on: LLC flank tumor-bearing mice; experiment: Open field test and elevated plus maze in mice with subcutaneous LLC flank tumors after chemotherapy; type: in vivo, C57BL/6 mice
Procedure: FIGS. 4A-4C depict that the behavior of mice is altered by tumor growth and by chemotherapy indicating increased pain and anxiety. C57BL/6 mice were inoculated with 5×105 LLC1 on right flank on Day 0. Cisplatin or Osimertinib were administered in doses of 10 mg/kg by intraperitoneal injection on the days indicated. DMSO+sterile saline was used as a vehicle control. Behavior was assayed using the open field test and EPM according to the timeline depicted in FIG. 4A. The open field (FIG. 4B) and EPM (FIG. 4C) tests were recorded using AnyMaze software to track animal speed, movement, and location. Significant differences between means were determined by ANOVA with Holm Sidack post hoc test p<0.05.
Alterations in behavior in tumor-bearing mice following chemotherapy treatment: To make a preliminary assessment of cancer and chemotherapy-derived symptoms (anxiety, reduced mobility, and pain) in mice, a study was conducted which used the syngeneic Lewis Lung Carcinoma (LLC) model of subcutaneous flank tumors. C57BL/6 mice were injected with 5×10^5 LLC cells on the right flank. Tumor-bearing mice were treated with Cisplatin, Osimertinib, or vehicle, as outlined in FIGS. 5A-5C. The study performed the open field test (a sensory motor test used to measure general activity level) and the elevated plus maze (EPM) (test for anxiety behavior) on tumor-bearing mice throughout the period of tumor growth and treatment (FIG. 4A). In these tests, reduced physical activity was used an indicator of increased pain, and decreases in both distances traveled and time spent mobile over the tumor growth period were observed. […] Overall, the mice spent very little time in the open arms regardless of time point or treatment group making the measure unreliable. […] One limitation of this model is the contribution of tumor location on the hind flank to decreased mobility. To overcome this limitation, future studies can use genetically engineered models of tumor growth in the lungs.

[5] = 25 mg/kg oral gavage every alternate day
[6] = LLC flank tumor mice, 10 mg/kg intraperitoneal

| SMILES | IC50 ([1]; Mus musculus, 48 hr, combinations with 10 μM CBD, read-out: IC50 (μM), cell viability reduction) [µM] | IC50 ([1]; Mus musculus, n=3, read-out: IC50 of CBD alone (FIG. 2 legend)) [µM] | IC50 ([2]; Homo sapiens, NCI-H1975, 48 h, read-out: IC50 (μM), cell viability reduction) [µM] | IC50 ([2]; Homo sapiens, NCI-H1975, read-out: IC50 of CBD alone (FIG. 2 legend)) [µM] | Number of entries into the corner zone (open field) [3, 5] | Time mobile in the EPM [3, 5] | Time spent in the center zone (open field) [3, 5] | Time the animal's head was within the open center zone (EPM) [3, 5] | Distance travelled in the open field test ([3]; 25 mg/kg oral gavage every alternate day, initially) | Time mobile in the open field ([3]; 25 mg/kg oral gavage every alternate day, later as tumor growth progressed) | Tumor growth ([3]; CBD alone, 25 mg/kg oral gavage, IVIS luminescence) | IC50 ([1]; 48 hr, combinations with 10 μM CBD, read-out: IC50 (μM), cell viability reduction) [µM] | IC50 ([2]; H1975, 48 hr, combinations with 10 μM CBD, read-out: IC50 (μM), cell viability reduction) [µM] | Anxiety compared to vehicle [4, 6] | Mobility compared to vehicle [4, 6] | Time spent in the open center zone (EPM) compared to vehicle [4, 6] | IC50 ([2]; Homo sapiens, NCI-H1975, H1975, 48 hr, combinations with 10 μM CBD, read-out: IC50 (μM), cell viability reduction) [µM] | Anxiety compared to vehicle ([4]; mouse, in vivo, ip, 10 mg/kg) |
| --- | --- | --- | --- | --- | --- | --- | --- | --- | --- | --- | --- | --- | --- | --- | --- | --- | --- | --- |
| C=C(C)[C@@H]1CCC(C)=C[C@H]1c1c(O)cc(CCCCC)cc1O [CBD, Cannabidiol] | 19 | 14.5 | 19.5 | 21 | trending decrease | significant increases | significant increases | significant increases | no significant change | significant increases | significant reduction in tumor growth using CBD alone was not observed | – | – | – | – | – | – | – |
| N.N.[Cl][Pt][Cl] [Cisplatin] | – | – | – | – | – | – | – | – | – | – | – | 3.1 | 28 | increased anxiety | greater reduction in mobility | significantly decreased | – | – |
| C=CC(=O)Nc1cc(Nc2nccc(-c3cn(C)c4ccccc34)n2)c(OC)cc1N(C)CCN(C)C [Osimertinib] | – | – | – | – | – | – | – | – | – | – | – | – | – | – | – | significantly decreased | 3.7 | increased anxiety |

— patent US20240293432A1, “Use of Cannabidiol to Improve Rehabilitation in Lung Cancer” (priority 2023, published 2024)
